Where two headings read alike, the source gives them in different places.
Key:
[1] = for ACNs in I.E. as % of input: fed state (high fat meal), ileal efflux over 4 h, mean ± range, two experiments
[2] = system: human intestinal Caco-2 cell membranes; details: ref Yi et al., 2006; cited from earlier work
[3] = for hourly bioaccessibility as a percentage of anthocyanin input: fasted state, 4 h
[4] = system: mice with diet-induced diabetes; details: orally administered, ref Grace et al., 2009; cited from earlier work

Row | SMILES | ACNs in I.E. as % of input [1] | transport efficiency in Caco-2 cells [2] | other results
1 | COc1cc(-c2[o+]c3cc(O)cc(O)c3cc2O[C@@H]2OC[C@H](O)[C@H](O)[C@H]2O)cc(O)c1O.[Cl-] [pt-3-Arabinoside, petunidin-3-arabinoside] | 4.5 ± 1.5 % of input | – | total bioaccessibility in the fed state relative to the fasted state ([1]; fed (high fat meal) vs fasted, Tables 1 and 2): twice as bioaccessible
2 | OC[C@H]1O[C@@H](Oc2cc3c(O)cc(O)cc3[o+]c2-c2cc(O)c(O)c(O)c2)[C@H](O)[C@@H](O)[C@@H]1O [dp-3-Glucoside, delphinidin-3-glucoside] | – | lower transport efficiency | –
3 | COc1cc(-c2[o+]c3cc(O)cc(O)c3cc2O[C@@H]2O[C@H](COC(C)=O)[C@H](O)[C@H](O)[C@H]2O)cc(OC)c1O [mal-3-(6″-Acetoyl)-galactoside] | 2.4 ± 0.9 % of input | – | –
4 | COc1cc(-c2[o+]c3cc(O)cc(O)c3cc2O[C@@H]2OC[C@H](O)[C@H](O)[C@H]2O)cc(OC)c1O [mal-3-Arabinoside, malvidin-3-arabinoside] | 2.6 ± 0.4 % of input | – | total bioaccessibility in the fasted state relative to the fed state ([3]; fasted vs fed (high fat meal), Tables 1 and 2): twice as bioaccessible
5 | COc1cc(-c2[o+]c3cc(O)cc(O)c3cc2O[C@@H]2O[C@H](CO)[C@@H](O)[C@H](O)[C@H]2O)cc(OC)c1O [mal-3-Glucoside, malvidin-3-glucoside] | 3.2 ± 0.1 % of input | highest transport efficiency | hypoglycemic effect [4]: hypoglycemic; hourly bioaccessibility as a percentage of anthocyanin input ([3]; ileal samples): 0.3%; hourly bioaccessibility as a percentage of anthocyanin input ([3]; jejunum): 0.8%
6 | COc1cc(-c2[o+]c3cc(O)cc(O)c3cc2O[C@@H]2O[C@H](CO)[C@H](O)[C@H](O)[C@H]2O)cc(OC)c1O [mal-3-Galactoside] | 2.6 ± 0.8 % of input | – | –

Source: article PMC4072317 (Food chemistry, 2013)
